The target of one assay is CK1ε (Homo sapiens (Human), UniProt P49674). Description: CK1ε kinase assay (Caliper LABCHIP electrophoretic separation of fluoresceinated peptide substrate and product). The assay is classed as biochemical. As to conditions: 200 pM enzyme, 50 μM ATP, 22 hours at room temperature. The gist of the method: (§1)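 IC50 values were obtained by non-linear regression from eleven-concentration titrations. The kinase reactions were incubated for 22 hours at room temperature before termination with 35 mM EDTA.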

Another assay addresses CK1δ (Homo sapiens (Human), UniProt P48730). Description: CK1δ kinase assay (Caliper LABCHIP electrophoretic separation of fluoresceinated peptide substrate and product). The assay is classed as biochemical. As to conditions: 200 pM enzyme, 50 μM ATP, 22 hours at room temperature. The gist of the method:
as §1

SMILES strings stand for the structures.

We go through 28 molecules from patent US9556179B2 (BRISTOL-MYERS SQUIBB COMPANY, priority 2012, dated 2017).

Chain of CK1ε (P49674 whole entry): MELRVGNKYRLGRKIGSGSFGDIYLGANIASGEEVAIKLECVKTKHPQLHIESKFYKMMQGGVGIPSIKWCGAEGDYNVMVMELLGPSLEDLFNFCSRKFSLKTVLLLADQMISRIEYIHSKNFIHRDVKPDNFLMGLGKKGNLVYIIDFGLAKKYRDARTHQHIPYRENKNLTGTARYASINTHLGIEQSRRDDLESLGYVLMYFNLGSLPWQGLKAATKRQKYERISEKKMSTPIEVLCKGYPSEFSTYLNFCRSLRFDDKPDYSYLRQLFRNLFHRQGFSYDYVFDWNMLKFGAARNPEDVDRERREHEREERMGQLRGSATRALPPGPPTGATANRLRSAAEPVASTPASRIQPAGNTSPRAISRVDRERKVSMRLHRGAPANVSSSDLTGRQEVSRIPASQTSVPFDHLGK
Chain of CK1δ (P48730 whole entry): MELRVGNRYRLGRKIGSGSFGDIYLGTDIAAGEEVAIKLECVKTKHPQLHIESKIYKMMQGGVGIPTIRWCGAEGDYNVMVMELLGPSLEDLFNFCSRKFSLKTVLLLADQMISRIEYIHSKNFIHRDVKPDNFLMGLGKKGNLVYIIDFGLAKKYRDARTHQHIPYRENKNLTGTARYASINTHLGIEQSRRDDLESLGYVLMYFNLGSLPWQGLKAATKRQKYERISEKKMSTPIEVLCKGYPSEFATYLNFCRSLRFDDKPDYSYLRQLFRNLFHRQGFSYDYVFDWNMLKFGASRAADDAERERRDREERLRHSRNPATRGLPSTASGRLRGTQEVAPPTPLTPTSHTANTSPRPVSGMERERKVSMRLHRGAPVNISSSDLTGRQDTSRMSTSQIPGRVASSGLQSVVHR

For `O=C(Nc1cn2nc(-c3c(-c4ccc(F)cc4)nc4ccccn34)ccc2n1)c1cncc(Cl)c1` [Compound 201, 5-chloro-N-(6-(2-(4-fluorophenyl)imidazo[1,2-a]pyridin-3-yl)imidazo[1,2-b]pyridazin-2-yl) nicotinamide], the values for the IC50 at CK1ε and at CK1δ were 3.04 nM and 1.21 nM, respectively.

In the case of `CC(C)(C)c1cc(C(=O)Nc2cn3nc(-c4c(-c5ccc(F)cc5)nc5ccccn45)ccc3n2)ncn1` [Compound 202, 6-(tert-butyl)-N-(6-(2-(4-fluorophenyl)imidazo[1,2-a]pyridin-3-yl)imidazo[1,2-b]pyridazin-2-yl)pyrimidine-4-carboxamide], the IC50 (usually the concentration needed to halve the response being measured) stood at 28.1 nM at CK1ε and 9.84 nM against CK1δ.

For the molecule `O=C(Nc1cn2nc(-c3c(-c4ccc(F)cc4)nc4ccccn34)ccc2n1)c1ccnc(N2CCOCC2)c1` [Compound 203, N-(6-(2-(4-fluorophenyl)imidazo[1,2-a]pyridin-3-yl)imidazo[1,2-b]pyridazin-2-yl)-2-morpholinoisonicotinamide], the values for the IC50 at CK1ε and on CK1δ were 3.68 nM and 0.447 nM, respectively.

`O=C(Nc1cn2nc(-c3c(-c4ccc(F)cc4)nc4ccccn34)ccc2n1)c1cccc(-c2cccnc2)c1` [Compound 204, N-(6-(2-(4-fluorophenyl)imidazo[1,2-a]pyridin-3-yl)imidazo[1,2-b]pyridazin-2-yl)-3-(pyridin-3-yl)benzamide]: the IC50 at CK1ε was 1.83 nM; at CK1δ, 2.09 nM.

As to `O=C(Nc1cn2nc(-c3c(-c4ccc(F)cc4)nc4ccccn34)ccc2n1)c1cccc(-c2cncnc2)c1` [Compound 205, N-(6-(2-(4-fluorophenyl)imidazo[1,2-a]pyridin-3-yl)imidazo[1,2-b]pyridazin-2-yl)-3-(pyrimidin-5-yl)benzamide], the figures for the IC50 against CK1ε and against CK1δ were 4.35 nM and 2.04 nM, respectively.

For `N#Cc1cccc(-c2cccc(C(=O)Nc3cn4nc(-c5c(-c6ccc(F)cc6)nc6ccccn56)ccc4n3)c2)c1` [Compound 207, 3′-cyano-N-(6-(2-(4-fluorophenyl)imidazo[1,2-a]pyridin-3-yl]imidazo[1,2-b]pyridazin-2-yl)-[1,1′-biphenyl]-3-carboxamide], the IC50 on CK1ε is 18.1 nM; against CK1δ, 2.35 nM.

In the case of `O=C(Nc1cn2nc(-c3c(-c4ccc(F)cc4)nc4ccccn34)ccc2n1)c1ccon1` [Compound 208, N-(6-(2-(4-fluorophenyl)imidazo[1,2-a]pyridin-3-yl)imidazo[1,2-b]pyridazin-2-yl)isoxazole-3-carboxamide], the IC50 on CK1ε amounted to 17 nM; on CK1δ, 1.59 nM.

With `Cc1nocc1C(=O)Nc1cn2nc(-c3c(-c4ccc(F)cc4)nc4ccccn34)ccc2n1` [Compound 209, N-(6-(2-(4-fluorophenyl)imidazo[1,2-a]pyridin-3-yl)imidazo[1,2-b]pyridazin-2-yl)-3-methylisoxazole-4-carboxamide], the IC50 came to 29.5 nM at CK1ε and 1.83 nM on CK1δ.

Consider `Cc1onc(-c2ccccc2)c1C(=O)Nc1cn2nc(-c3c(-c4ccc(F)cc4)nc4ccccn34)ccc2n1` [Compound 210, N-(6-(2-(4-fluorophenyl)imidazo[1,2-a]pyridin-3-yl)imidazo[1,2-b]pyridazin-2-yl)-5-methyl-3-phenylisoxazole-4-carboxamide], for which the IC50 was 75.1 nM at CK1ε and 17.6 nM against CK1δ.

As for `O=C(Nc1cn2nc(-c3c(-c4ccc(F)cc4)nc4ccccn34)ccc2n1)c1cccc(-c2nccs2)c1` [Compound 211, N-(6-(2-(4-fluorophenyl)imidazo[1,2-a]pyridin-3-yl)imidazo[1,2-b]pyridazin-2-yl)-3-(thiazol-2-yl)benzamide], the IC50 on CK1ε stood at 6.77 nM; on CK1δ, 1.96 nM.

As to `O=C(Nc1cn2nc(-c3c(-c4ccc(F)cc4)nc4ccccn34)ccc2n1)c1cncc(-c2cccs2)c1` [Compound 212, N-(6-(2-(4-fluorophenyl)imidazo[1,2-a]pyridin-3-yl)imidazo[1,2-b]pyridazin-2-yl)-5-(thiophen-2-yl) nicotinamide], the IC50 on CK1ε was found to be 5.98 nM; at CK1δ it was 0.64 nM.

Consider `O=C(Nc1cn2nc(-c3c(-c4ccc(F)cc4)nc4ccccn34)ccc2n1)c1ccnc2[nH]cnc12` [Compound 213, N-(6-(2-(4-fluorophenyl)imidazo[1,2-a]pyridin-3-yl)imidazo[1,2-b]pyridazin-2-yl)-3H-imidazo[4,5-b] pyridine-7-carboxamide], for which the figures for the IC50 on CK1ε and on CK1δ were 17.2 nM and 1.61 nM, respectively.

For the molecule `O=C(Cn1ccnc1)Nc1cn2nc(-c3c(-c4ccc(F)cc4)nc4ccccn34)ccc2n1` [Compound 214, N-(6-(2-(4-fluorophenyl)imidazo[1,2-a]pyridin-3-yl)imidazo[1,2-b]pyridazin-2-yl)-2-(1H-imidazol-1-yl) acetamide], the IC50 against CK1ε was found to be 22.3 nM; at CK1δ, 2.19 nM.

On to `Cc1cc(C)n(CCC(=O)Nc2cn3nc(-c4c(-c5ccc(F)cc5)nc5ccccn45)ccc3n2)n1` [Compound 215, 3-(3,5-dimethyl-1H-pyrazol-1-yl)-N-(6-(2-(4-fluorophenyl)imidazo[1,2-a]pyridin-3-yl)imidazo[1,2-b]pyridazin-2-yl)propanamide], for which the IC50 against CK1ε turned out to be 17.1 nM; on CK1δ it was 1.67 nM.

`CN1CCC(C(=O)Nc2cn3nc(-c4c(-c5ccc(F)cc5)nc5ccccn45)ccc3n2)CC1` [Compound 216, N-(6-(2-(4-fluorophenyl)imidazo[1,2-a]pyridin-3-yl)imidazo[1,2-b]pyridazin-2-yl)-1-methylpiperidine-4-carboxamide]: the concentration for half-maximal inhibition (IC50) against CK1ε is 26.7 nM; against CK1δ it was 2.95 nM.

For `O=C(Nc1cn2nc(-c3c(-c4ccc(F)cc4)nc4ccccn34)ccc2n1)C1CCN(c2ccncc2)CC1` [Compound 217, N-(6-(2-(4-fluorophenyl)imidazo[1,2-a]pyridin-3-yl)imidazo[1,2-b]pyridazin-2-yl)-1-(pyridin-4-yl)piperidine-4-carboxamide], the IC50 at CK1ε amounted to 12.2 nM; at CK1δ it was 0.833 nM.

For `Cc1nc(-c2cccnc2)sc1C(=O)Nc1cn2nc(-c3c(-c4ccc(F)cc4)nc4ccccn34)ccc2n1` [Compound 218, N-(6-(2-(4-fluorophenyl)imidazo[1,2-a]pyridin-3-yl)imidazo[1,2-b]pyridazin-2-yl)-4-methyl-2-(pyridin-3-yl) thiazole-5-carboxamide], the figures for the IC50 against CK1ε and on CK1δ were 178 nM and 60.7 nM, respectively.

In the case of `Cc1nc(-c2ccncc2)sc1C(=O)Nc1cn2nc(-c3c(-c4ccc(F)cc4)nc4ccccn34)ccc2n1` [Compound 219, N-(6-(2-(4-fluorophenyl)imidazo[1,2-a]pyridin-3-yl)imidazo[1,2-b]pyridazin-2-yl)-4-methyl-2-(pyridin-4-yl) thiazole-5-carboxamide], the IC50 stood at 1.22 nM on CK1ε and 1.15 nM against CK1δ.

For `O=C(Nc1cn2nc(-c3c(-c4ccc(F)cc4)nc4ccccn34)ccc2n1)C1CCOCC1` [Compound 220, N-(6-(2-(4-fluorophenyl)imidazo[1,2-a]pyridin-3-yl)imidazo[1,2-b]pyridazin-2-yl)tetrahydro-2H-pyran-4-carboxamide], the IC50 amounted to 11.4 nM at CK1ε and 0.734 nM at CK1δ.

`O=C(CN1CCOCC1)Nc1cn2nc(-c3c(-c4ccc(F)cc4)nc4ccccn34)ccc2n1` [Compound 221, N-(6-(2-(4-fluorophenyl)imidazo[1,2-a]pyridin-3-yl)imidazo[1,2-b]pyridazin-2-yl)-2-morpholinoacetamide]: the IC50 against CK1ε is 42.2 nM; on CK1δ, 4.06 nM.

In the case of `O=C(Nc1cn2nc(-c3c(-c4ccc(F)cc4)nc4ccc(N5CCCC5)nn34)ccc2n1)c1ccncc1` [Compound 222, N-(2-(4-fluorophenyl)-6-(pyrrolidin-1-yl)-[3,6′-biimidazo[1,2-b]pyridazin]-2′-yl)isonicotinamide], the IC50 at CK1ε is 43.6 nM; against CK1δ it was 30.7 nM.

Turning to `CN1CCN(c2ccc3nc(-c4ccc(F)cc4)c(-c4ccc5nc(NC(=O)c6ccncc6)cn5n4)n3n2)CC1` [Compound 223, N-(2-(4-fluorophenyl)-6-(4-methylpiperazin-1-yl)-[3,6′-biimidazo[1,2-b]pyridazin]-2′-yl)isonicotinamide], the results for the IC50 against CK1ε and against CK1δ were 10.1 nM and 6.85 nM, respectively.

On to `Nc1ccc2nc(-c3ccc(F)cc3)c(-c3ccc4nc(NC(=O)c5ccncc5)cn4n3)n2n1` [Compound 224, N-(6-amino-2-(4-fluorophenyl)-[3,6′-biimidazo[1,2-b]pyridazin]-2′-yl)isonicotinamide], for which the IC50 came to 2.81 nM on CK1ε and 0.694 nM against CK1δ.

On to `CNc1ccc2nc(-c3ccc(F)cc3)c(-c3ccc4nc(NC(=O)c5ccncc5)cn4n3)n2n1` [Compound 225, N-(2-(4-fluorophenyl)-6-(methyl-amino)-[3,6′-biimidazo[1,2-b]pyridazin]-2′-yl)isonicotinamide], for which the IC50 was found to be 10.4 nM at CK1ε and 2.82 nM against CK1δ.

On to `O=C(Nc1cn2nc(-c3c(-c4ccc(F)cc4)nc4ccc(N5CCOCC5)nn34)ccc2n1)c1ccncc1` [Compound 226, N-(2-(4-fluorophenyl)-6-morpholino-[3,6′-biimidazo[1,2-b]pyridazin]-2′-yl)isonicotinamide], for which the results for the IC50 against CK1ε and at CK1δ were 10.1 nM and 4.94 nM, respectively.

With `O=C(Nc1cn2nc(-c3c(-c4ccc(F)cc4)nc4ccc(NC5CCC5)nn34)ccc2n1)c1ccncc1` [Compound 227], the IC50 at CK1ε amounted to 36.9 nM; on CK1δ, 12.5 nM.

Regarding `Cc1nc(-c2ccc(F)cc2)c(-c2ccc3nc(NC(=O)c4ccncc4)cn3n2)[nH]1` [Compound 228, N-(6-(4-(4-fluorophenyl)-2-methyl-1H-imidazol-5-yl)imidazo[1,2-b]pyridazin-2-yl)isonicotinamide], the half-inhibitory concentration (IC50) against CK1ε was 1.82 nM; against CK1δ, 2.07 nM.

With `CCCn1cnc(-c2ccc(F)cc2)c1-c1ccc2nc(NC(=O)c3ccnc(F)c3)cn2n1` [Compound 229, 2-Fluoro-N-(6-(4-(4-fluorophenyl)-1-propyl-1H-imidazol-5-yl)imidazo[1,2-b]pyridazin-2-yl)isonicotinamide], the IC50 against CK1ε was found to be 2.57 nM; at CK1δ it was 0.474 nM.
